Blank lines part the entries; values can stand above or below the compound they belong to.
How the values were obtained:
GAPDH = target: T1, GAPDH (Thermosynechococcus vestitus, UniProt Q8DIW5); test: X-ray crystal structure; assay type: binding
T1 sequence (Q8DIW5 1-337): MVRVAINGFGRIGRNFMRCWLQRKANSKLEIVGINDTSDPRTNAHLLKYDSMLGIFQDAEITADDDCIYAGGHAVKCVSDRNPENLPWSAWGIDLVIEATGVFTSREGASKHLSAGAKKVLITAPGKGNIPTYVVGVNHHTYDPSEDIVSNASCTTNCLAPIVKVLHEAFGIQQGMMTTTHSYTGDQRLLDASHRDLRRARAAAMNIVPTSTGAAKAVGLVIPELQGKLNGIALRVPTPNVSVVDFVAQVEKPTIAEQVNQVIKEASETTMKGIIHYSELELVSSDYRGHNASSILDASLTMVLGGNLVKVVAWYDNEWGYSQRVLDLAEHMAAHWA

GAPDH-CP12 = target: T2, GAPDH-CP12 (Thermosynechococcus vestitus, UniProt Q8DIW5); test: X-ray crystal structure; assay type: binding; conditions: proximal (CP12-occupied) and distal sites
T2 sequence (Q8DIW5 1-337): T1 sequence (Q8DIW5 1-337)
T2 sequence (Q8DHX3 1-75 partner): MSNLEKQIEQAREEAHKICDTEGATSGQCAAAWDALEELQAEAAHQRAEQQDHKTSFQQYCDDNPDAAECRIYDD

PRK = target: T3, PRK (Thermosynechococcus vestitus, UniProt Q8DHN2); test: ADP production, coupled assay with ADP-hexokinase; assay type: biochemical; conditions: ternary complex reduced with DTT
T3 sequence (Q8DHN2 1-334): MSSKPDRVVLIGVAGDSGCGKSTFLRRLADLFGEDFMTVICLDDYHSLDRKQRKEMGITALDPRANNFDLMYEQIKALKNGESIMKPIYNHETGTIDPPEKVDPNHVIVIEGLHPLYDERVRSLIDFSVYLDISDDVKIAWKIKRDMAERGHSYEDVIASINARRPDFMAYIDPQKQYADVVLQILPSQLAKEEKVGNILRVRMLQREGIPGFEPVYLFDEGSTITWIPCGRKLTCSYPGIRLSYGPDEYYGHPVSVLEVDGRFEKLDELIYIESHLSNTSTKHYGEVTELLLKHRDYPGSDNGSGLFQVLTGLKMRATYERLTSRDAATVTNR

SMILES: NC(=O)c1ccc[n+]([C@@H]2O[C@H](COP(=O)(O)OP(=O)(O)OC[C@H]3O[C@@H](n4cnc5c(N)ncnc54)[C@H](OP(=O)(O)O)[C@@H]3O)[C@@H](O)[C@H]2O)c1 [NADP^+]
X-ray crystal structure (GAPDH; NAD+ exchanged for NADP+ by turnover): this could be exchanged for NADP^+ by turning over the enzyme

X-ray crystal structure (GAPDH; NAD+ bound from E. coli expression): GAPDH-NAD^+, GAPDH-NADP^+
SMILES: NC(=O)c1ccc[n+]([C@@H]2O[C@H](COP(=O)(O)OP(=O)(O)OC[C@H]3O[C@@H](n4cnc5c(N)ncnc54)[C@H](O)[C@@H]3O)[C@@H](O)[C@H]2O)c1 [NAD^+]
X-ray crystal structure (GAPDH-CP12): The CP12-bound (proximal) site makes extensive contacts with both NAD^+ and GAPDH

SMILES: O=C(CO)[C@H](O)[C@H](O)COP(=O)(O)O [ribulose 5-phosphate]
ADP production, coupled assay with ADP-hexokinase (PRK; co-substrate ATP): measuring ADP production from ATP and ribulose 5-phosphate (Ru5P)

SMILES: Nc1ncnc2c1ncn2[C@@H]1O[C@H](COP(=O)(O)OP(=O)(O)OP(=O)(O)O)[C@@H](O)[C@H]1O [ATP]
ADP production, coupled assay with ADP-hexokinase (PRK; co-substrate ribulose 5-phosphate): measuring ADP production from ATP and ribulose 5-phosphate (Ru5P)

— paper PMC6800369 (Proceedings of the National Academy of Sciences of the …, 2019)
